Experimental findings from patent publication US20100105729A1, “ARYL-SUBSTITUTED HETEROCYCLIC PDE4 INHIBITORS AS ANTI-INFLAMMATORY AGENTS” (KALYPSYS, INC., priority 2006, published 2010) are described below.

Some results are limits rather than exact numbers.

The test deals with T1, PDE4B (Homo sapiens, UniProt Q07343).
T1 construct: hexa-histidine (His6) (N); made in house
T1 sequence (Q07343 330-659 limits assumed, species assumed): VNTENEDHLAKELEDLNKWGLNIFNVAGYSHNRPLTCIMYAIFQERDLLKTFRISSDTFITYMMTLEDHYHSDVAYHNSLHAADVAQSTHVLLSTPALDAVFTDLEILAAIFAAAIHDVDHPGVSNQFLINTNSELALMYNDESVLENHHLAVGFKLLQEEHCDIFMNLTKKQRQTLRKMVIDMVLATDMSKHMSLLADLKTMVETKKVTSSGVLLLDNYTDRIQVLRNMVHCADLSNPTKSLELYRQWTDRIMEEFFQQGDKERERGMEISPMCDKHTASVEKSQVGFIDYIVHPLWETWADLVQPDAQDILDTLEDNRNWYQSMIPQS
Kind of test: PDE4 IMAP Assay. The note with it: catalytic domain of PDE4B, fluorescence polarization. The format is biochemical. The text has this: Compounds may be screened for functional potency in in vitro biochemical assays for their ability to inhibit the activity of phosphodiesterase (PDE) enzymes. A commercial PDE assay, Molecular Device's PDE IMAP assay, was modified and utilized to measure the inhibitory activity of compounds on PDE isoforms. The IMAP technology is based on the high affinity binding of phosphate by immobilized metal (MIII) coordination complexes on nanoparticles. This IMAP “binding reagent” complexes with phosphate groups on the nucleotide monophosphates generated in the reaction. Such binding causes a change in the rate of the molecular motion of the nucleotide, and results in an increase in the fluorescence polarization value observed for the fluorescent label attached to the substrate. PDE inhibitors prevent the generation of nucleotide monophosphates and the subsequent increase in polarization value observed for the fluorescent label attached to the substrate. The catalytic domain of PDE4B was fused to an amino-terminus hex-histadine affinity tag and purified. PDE4B enzyme was incubated with compounds for 10 minutes. Fluorescently labeled cyclic AMP substrates were then added to the PDE enzyme mix and incubated for 2 hours at room temperature. IMAP binding reagent was then added to the enzyme mix, incubated for 10-30 minutes and fluorescent polarization of the fluorescently labeled substrate was read either with the Perkin Elmer Viewlux or Molecular Devices Acquest or Analyst. Roflumilast and Rolipram are the positive controls used in the assay.
Turning to `COc1ccc(C2=NN(C(=O)c3ccc(Br)o3)C(c3cccc(OC)c3OC)C2)cc1OC` (centres unmarked) [Example 84, (5-bromofuran-2-yl)(5-(2,3-dimethoxyphenyl)-3-(3,4-dimethoxyphenyl)-4,5-dihydro-1H-pyrazol-1-yl)methanone], the inhibition at 10 µM is below 50%.

As to `COc1ccc(C2=NN(S(=O)(=O)c3ccccc3)C(c3cn(-c4ccccc4)nc3-c3ccccc3)C2)cc1OC` (centres unmarked) [Example 25, 4-(3-(3,4-dimethoxyphenyl)-1-(phenylsulfonyl)-4,5-dihydro-1H-pyrazol-5-yl)-1,3-diphenyl-1H-pyrazole], the inhibition at 10 µM was below 50%.

Compound `COc1ccc(C2=NN(C(=O)c3ccccc3Cl)C(c3ccc(C)cc3)C2)cc1OC` (centres unmarked) [Example 32, (2-chlorophenyl)(3-(3,4-dimethoxyphenyl)-5-p-tolyl-4,5-dihydro-1H-pyrazol-1-yl)methanone] showed an inhibition at 10 µM below 50%.

Turning to `COc1ccc(C2=NN(C(C)=O)C(c3cccc(OC)c3OC)C2)cc1OC` (centres unmarked) [Example 101, 1-(5-(2,3-dimethoxyphenyl)-3-(3,4-dimethoxyphenyl)-4,5-dihydro-1H-pyrazol-1-yl)ethanone], the inhibition at 10 µM is below 50%.

`COc1ccc(C2=NN(S(=O)(=O)c3ccc(C)cc3)C(c3ccc(OC)c(OC)c3)C2)cc1OC` (centres unmarked) [Example 87, 3,5-bis(3,4-dimethoxyphenyl)-1-tosyl-4,5-dihydro-1H-pyrazole]: the inhibition at 10 µM was below 50%.

Compound `COc1ccc(C2=NN(S(=O)(=O)c3ccc(C)cc3)C(c3ccc(N(C)C)cc3)C2)cc1OC` (centres unmarked) [Example 85, 4-(3-(3,4-dimethoxyphenyl)-1-tosyl-4,5-dihydro-1H-pyrazol-5-yl)-N,N-dimethylaniline] gave an inhibition at 10 µM below 50%.

Compound `CCC(=O)N1N=C(c2ccc(OC)c(OC)c2)CC1c1cc2cc(OC)ccc2nc1Cl` (centres unmarked) [Example 8, 1-(5-(2-chloro-6-methoxyquinolin-3-yl)-3-(3,4-dimethoxyphenyl)-4,5-dihydro-1H-pyrazol-1-yl)propan-1-one] showed an inhibition at 10 µM below 50%.

Turning to `COc1ccc(C2=NN(S(=O)(=O)c3ccccc3)C(c3ccc(C)cc3)C2)cc1OC` (centres unmarked) [Example 56, 3-(3,4-dimethoxyphenyl)-1-(phenylsulfonyl)-5-p-tolyl-4,5-dihydro-1H-pyrazole], the inhibition at 10 µM is below 50%.

Compound `COc1ccc(C2=NN(S(C)(=O)=O)C(c3cccc(OC)c3OC)C2)cc1OC` (centres unmarked) [Example 11, 5-(2,3-dimethoxyphenyl)-3-(3,4-dimethoxyphenyl)-1-(methylsulfonyl)-4,5-dihydro-1H-pyrazole] showed an inhibition at 10 µM below 50%.

Regarding `COc1ccc(C2CC(c3ccc(OC)c(OC)c3)=NN2C(C)=O)cc1` (centres unmarked) [Example 103, 1-(3-(3,4-dimethoxyphenyl)-5-(4-methoxyphenyl)-4,5-dihydro-1H-pyrazol-1-yl)ethanone], the inhibition at 10 µM is below 50%.

As for `COc1ccc(C2=NN(C(=O)c3cc(OC)c(OC)c(OC)c3)C(c3ccccc3F)C2)cc1OC` (centres unmarked) [Example 79, (3-(3,4-dimethoxyphenyl)-5-(2-fluorophenyl)-4,5-dihydro-1H-pyrazol-1-yl)(3,4,5-trimethoxyphenyl)methanone], the inhibition at 10 µM was at least 50%.

Consider `COc1ccc2cc(C3CC(c4ccc(OC)c(OC)c4)=NN3C(=O)c3ccccc3Cl)c(Cl)nc2c1` (centres unmarked) [Example 16, (5-(2-chloro-7-methoxyquinolin-3-yl)-3-(3,4-dimethoxyphenyl)-4,5-dihydro-1H-pyrazol-1-yl)(2-chlorophenyl)methanone], for which the inhibition at 10 µM was below 50%.

Regarding `COc1ccc(C2=NN(C(C)=O)C(c3cc4ccc(C)cc4nc3Cl)C2)cc1OC` (centres unmarked) [Example 75, 1-(5-(2-chloro-7-methylquinolin-3-yl)-3-(3,4-dimethoxyphenyl)-4,5-dihydro-1H-pyrazol-1-yl)ethanone], the inhibition at 10 µM was below 50%.

Consider `COc1ccc(OC)c(C2CC(c3ccc(OC)c(OC)c3)=NN2S(=O)(=O)c2ccccc2)c1` (centres unmarked) [Example 88, 5-(2,5-dimethoxyphenyl)-3-(3,4-dimethoxyphenyl)-1-(phenylsulfonyl)-4,5-dihydro-1H-pyrazole], for which the inhibition at 10 µM is below 50%.

Take `COc1ccc(C2=NN(S(C)(=O)=O)C(c3c(F)cccc3Cl)C2)cc1OC` (centres unmarked) [Example 3, 5-(2-chloro-6-fluorophenyl)-3-(3,4-dimethoxyphenyl)-1-(methylsulfonyl)-4,5-dihydro-1H-pyrazole]: the inhibition at 10 µM was below 50%.

On to `COc1ccc(C2=NN(C(=O)CCC(=O)O)C(c3cc4cccc(C)c4nc3Cl)C2)cc1OC` (centres unmarked) [Example 5, 4-(5-(2-chloro-8-methylquinolin-3-yl)-3-(3,4-dimethoxyphenyl)-4,5-dihydro-1H-pyrazol-1-yl)-4-oxobutanoic acid], for which the inhibition at 10 µM was below 50%.

For the compound `COc1ccc(C2=NN(C(=O)CCCC(=O)O)C(c3ccc(C)cc3)C2)cc1OC` (centres unmarked) [Example 96, 5-(3-(3,4-dimethoxyphenyl)-5-p-tolyl-4,5-dihydro-1H-pyrazol-1-yl)-5-oxopentanoic acid], the inhibition at 10 µM is below 50%.

Take `COc1ccc(C2=NN(C(=O)c3cc(OC)c(OC)c(OC)c3)C(c3ccccc3OC)C2)cc1OC` (centres unmarked) [Example 80, (3-(3,4-dimethoxyphenyl)-5-(2-methoxyphenyl)-4,5-dihydro-1H-pyrazol-1-yl)(3,4,5-trimethoxyphenyl)methanone]: the inhibition at 10 µM is below 50%.

`COc1ccc(C2CC(c3ccc(OC)c(OC)c3)=NN2C(=O)c2ccccc2Cl)cc1` (centres unmarked) [Example 33, (2-chlorophenyl)(3-(3,4-dimethoxyphenyl)-5-(4-methoxyphenyl)-4,5-dihydro-1H-pyrazol-1-yl)methanone]: the inhibition at 10 µM is at least 50%.

`COc1ccc(C2=NN(C(=O)c3cccs3)C(c3ccccc3Cl)C2)cc1OC` (centres unmarked) [Example 39, (5-(2-chlorophenyl)-3-(3,4-dimethoxyphenyl)-4,5-dihydro-1H-pyrazol-1-yl)(thiophen-2-yl)methanone]: the inhibition at 10 µM is below 50%.

`COc1ccc(OC)c(C2CC(c3ccc(OC)c(OC)c3)=NN2C(=O)c2ccccc2Cl)c1` (centres unmarked) [Example 29, (2-chlorophenyl)(5-(2,5-dimethoxyphenyl)-3-(3,4-dimethoxyphenyl)-4,5-dihydro-1H-pyrazol-1-yl)methanone]: the inhibition at 10 µM is below 50%.

In turn, `COc1ccc(C2=NN(C(=O)CCC(=O)O)C(c3ccc(C)cc3)C2)cc1OC` (centres unmarked) [Example 71, 4-(3-(3,4-dimethoxyphenyl)-5-p-tolyl-4,5-dihydro-1H-pyrazol-1-yl)-4-oxobutanoic acid] yielded an inhibition at 10 µM below 50%.

Turning to `COc1ccc2cc(C3CC(c4ccc(OC)c(OC)c4)=NN3C(=O)CCC(=O)O)c(Cl)nc2c1` (centres unmarked) [Example 22, 4-(5-(2-chloro-7-methoxyquinolin-3-yl)-3-(3,4-dimethoxyphenyl)-4,5-dihydro-1H-pyrazol-1-yl)-4-oxobutanoic acid], the inhibition at 10 µM is below 50%.

Compound `COc1ccc(C2=NN(S(=O)(=O)c3ccccc3)C(c3ccc(F)cc3)C2)cc1OC` (centres unmarked) [Example 54, 3-(3,4-dimethoxyphenyl)-5-(4-fluorophenyl)-1-(phenylsulfonyl)-4,5-dihydro-1H-pyrazole] returned an inhibition at 10 µM below 50%.

In turn, `COc1ccc(OC)c(C2CC(c3ccc(OC)c(OC)c3)=NN2C(=O)CCCC(=O)O)c1` (centres unmarked) [Example 64, 5-(5-(2,5-dimethoxyphenyl)-3-(3,4-dimethoxyphenyl)-4,5-dihydro-1H-pyrazol-1-yl)-5-oxopentanoic acid] had an inhibition at 10 µM below 50%.

The compound `COc1ccc(C2=NN(C(=O)c3cccs3)C(c3cccc(OC)c3OC)C2)cc1OC` (centres unmarked) [Example 38, (5-(2,3-dimethoxyphenyl)-3-(3,4-dimethoxyphenyl)-4,5-dihydro-1H-pyrazol-1-yl)(thiophen-2-yl)methanone] registered an inhibition at 10 µM of at least 50%.

For the compound `COc1ccc(C2CC(c3ccc(OC)c(OC)c3)=NN2S(=O)(=O)c2ccc(C)cc2)cc1` (centres unmarked) [Example 92, 3-(3,4-dimethoxyphenyl)-5-(4-methoxyphenyl)-1-tosyl-4,5-dihydro-1H-pyrazole], the inhibition at 10 µM is below 50%.

Take `COc1ccc(C2=NN(C(=O)CCC(=O)O)C(c3ccc(OC)c(OC)c3)C2)cc1OC` (centres unmarked) [Example 68, 4-(3,5-bis(3,4-dimethoxyphenyl)-4,5-dihydro-1H-pyrazol-1-yl)-4-oxobutanoic acid]: the inhibition at 10 µM was below 50%.

`COc1ccc(C2=NN(C(=O)c3ccc(Br)o3)C(c3ccccc3)C2)cc1OC` (centres unmarked) [Example 51, (5-bromofuran-2-yl)(3-(3,4-dimethoxyphenyl)-5-phenyl-4,5-dihydro-1H-pyrazol-1-yl)methanone] returned an inhibition at 10 µM of at least 50%.

`CCc1ccc(C2CC(c3ccc(OC)c(OC)c3)=NN2C(C)=O)cc1` (centres unmarked) [Example 21, 1-(3-(3,4-dimethoxyphenyl)-5-(4-ethylphenyl)-4,5-dihydro-1H-pyrazol-1-yl)ethanone] had an inhibition at 10 µM below 50%.

As for `COc1ccc(C2=NN(C(=O)c3ccccc3Cl)C(c3ccccc3Cl)C2)cc1OC` (centres unmarked) [Example 35, (2-chlorophenyl)(5-(2-chlorophenyl)-3-(3,4-dimethoxyphenyl)-4,5-dihydro-1H-pyrazol-1-yl)methanone], the inhibition at 10 µM is below 50%.

`COc1ccc(C2=NN(S(=O)(=O)c3ccc(C)cc3)C(c3cn(-c4ccccc4)nc3-c3ccccc3)C2)cc1OC` (centres unmarked) [Example 24, 4-(3-(3,4-dimethoxyphenyl)-1-tosyl-4,5-dihydro-1H-pyrazol-5-yl)-1,3-diphenyl-1H-pyrazole] showed an inhibition at 10 µM below 50%.

In general, inhibition refers to the change of the read-out against control, counted positive when it falls.
